Experimental data reported in EP0277849A1, “Incorporation of one or more lipophilic, active principles into lipoproteins, lipoproteins obtained and pharmaceutical compositions containing them” (IRE-CELLTARG S.A., priority 1987, dated 1988).

Legend:
[1] = Incorporation of antifungal agent into LDL by NaDoc dissociation-reconstitution; assay type: physicochemical; details: 1,6 mg LDL, 482 µg of agent, dialysis
Description: On ajoute à 1,6 mg de LDL préalablement dialysées contre le tampon C, 10 mg de NaDoc solide et on laisse réagir 30 minutes à température ambiante. On ajoute à la préparation 2,8 ml d'une solution NaDoc 20 mM, Na2COs 50 mM, NaCi 50 mM, pH 10 contenant 482 µg de CT4000A ou 482 µg de CT040013. Les échantillons sont dialysés à 4° C contre trois fois 1 litre de tampon B.
Le pourcentage de récupération en LDL, en CT040013 et en NaDoc est déterminé au terme du processus de reconstitution (figure 13).
Il est également possible de rapporter la masse de substance incorporée par mole de LDL. Les résultats obtenus pour le CT04000A et la CT040013 sont respectivement de 0,4 et de 208 moles incorporés par mole de LDL.

Candida tropicalis = experiment: Intracellular infection model: J77468 macrophages infected with Candida tropicalis; assay type: cell-based; details: 2 % de sérum de veau foetal
Description: La lignée continue de macrophages J77468 d'origine murine provient d'un clonage de la souche J774 ATCC, et est cultivée en milieu RPMI 1640 additionné de glutamine 2 mM, 10% de sérum de veau foetal (décomplémenté 60 min. à 56°) et de 10 mM Hepes (pH 7.2). Une suspension de 5 10^6 cellules/ml sont infectées avec une culture de Candida tropicalis (5 10^5 levures/ml) provenant d'une culture de nuit dans de la casitone. Le milieu d'infection utilisé est du RPMI contenant 2 % de sérum de veau nouveau-né et 10 mM Hepes (pH 7.2).
Après 3 h d'incubation à 37° dans un mélange d'air 10 % C02, la phagocytose des levures est complète. La suspension cellulaire macrophages-Candida est centrifugée, lavée abondamment et répartie à raison de 10^5 macrophages infectés/alvéole dans des boîtes à 24 alvéoles contenant une lamelle de verre (diamètre 14 mm). Après 3 h de phagocytose (To), sur 100 macrophages, 32 contiennent de 1 à 6 Candida/macrophage, l'infection moyenne étant de 2 Candida/macrophage.
Toutes les levures ont été phagocytées sauf rares exceptions (estimation au microscope optique après coloration au May-Grünwald Giemsa). Douze concentrations différentes des drogues de référence et des drogues encapsulées dans les LDL sont distribuées dans les boîtes contenant les macrophages infectés.
L'évaluation de l'efficacité d'une drogue se fait à chaque concentration. Testées après 18 h d'incubation (37°, dans un mélange air-10 % C02), les levures se multiplient d'abord au sein des cellules hôtes, puis dans le milieu extracellulaire. Le taux de macrophages infectés est alors de 75 % chez les témoins. Une cellule peut contenir de 1 à plus de 20 Candida/cellule, la majorité contient de 2 à 6 levures/cellule. Le milieu de culture contient 10^8 Candida extracellulaires/ml (comptage dans une cellule de Burker).
L'activité d'une drogue encapsulée ou non dans les LDL ou Ac-LDL par rapport à un antifongique de référence, le kétoconazole (K), est déterminé par la concentration micromolaire en drogue réduisant de 50 % le nombre de macrophages infectés par les Candida (=C150). Signalons que parallèlement à la réduction au cours du traitement, du taux de cellules infectées, le nombre de Candida par macrophage infecté diminue fortement (de 1 à 3 levures/cellule).
Le milieu de culture est RPMI + glutamine 2 mM + Hepes 10 mM + 2 % de sérum de veau foetal.

SMILES: CCCCCCCC/C=C\CCCCCCCC(=O)N1CCN(c2ccc(OC[C@H]3CO[C@](Cn4ccnc4)(c4ccc(Cl)cc4Cl)O3)cc2)CC1 [KO1]
- moles incorporés par mole de LDL [1]: 208 moles incorporés par mole de LDL
- CI50 K/AF (Candida tropicalis): 0,6
- IC50 (Candida tropicalis; Candida tropicalis, Macrophage, micromolar concentration reducing infected macrophages by 50 %, 18 h, read-out: CI50 (the source's name)): 85.3 µM
